The values below are quoted from earlier work in patent publication US20040157796A1 (priority 2002, published 2004).

For series [1] the following is noted: background statement.
In the next series the target is COX-1 (Homo sapiens, UniProt P23219). The following applies: background statement.
Sequence of COX-1 (P23219 24-599): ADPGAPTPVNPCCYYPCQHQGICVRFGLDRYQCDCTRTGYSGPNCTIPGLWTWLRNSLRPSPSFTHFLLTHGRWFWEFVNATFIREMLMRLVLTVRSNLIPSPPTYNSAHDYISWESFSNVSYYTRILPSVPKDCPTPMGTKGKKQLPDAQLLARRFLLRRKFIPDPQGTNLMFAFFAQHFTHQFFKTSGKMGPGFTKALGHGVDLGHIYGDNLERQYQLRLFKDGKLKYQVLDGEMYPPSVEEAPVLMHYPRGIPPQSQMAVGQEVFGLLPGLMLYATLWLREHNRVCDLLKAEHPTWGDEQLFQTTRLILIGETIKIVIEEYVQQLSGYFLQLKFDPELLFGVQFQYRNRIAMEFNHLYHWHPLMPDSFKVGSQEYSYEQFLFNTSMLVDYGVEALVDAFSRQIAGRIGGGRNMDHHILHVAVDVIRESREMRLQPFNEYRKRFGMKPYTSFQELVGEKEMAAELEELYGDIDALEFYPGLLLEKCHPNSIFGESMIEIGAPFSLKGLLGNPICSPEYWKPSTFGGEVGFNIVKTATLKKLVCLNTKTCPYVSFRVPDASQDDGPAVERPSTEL

For `CCC(=O)NS(=O)(=O)c1ccc(-c2c(-c3ccccc3)noc2C)cc1` [Parecoxib, N-[[4-(5-methyl-3-phenylisoxazol-4-yl)phenyl]sulfonyl]propanamide], the solubility in water entry in series [1] is recorded as “much more soluble”. Besides, the “in vitro inhibitory activity against COX-1” value at COX-1 was “weak in vitro inhibitory activity”.

`Cc1onc(-c2ccccc2)c1-c1ccc(S(N)(=O)=O)cc1` [valdecoxib]: the solubility in water entry in series [1] is “extremely low solubility”. On COX-1, the “in vitro inhibitory activity against COX-1” value is given as “weak inhibitor”.
